Experimental data published in the supplement of paper PMC4862054.

Tests used:
Conditions in all cases: incubation time: 72 h
DU-4475 [1] = experiment: normalised response (% of control), CellTiter-Glo; higher = more viable cells (100 = DMSO, 0 = benzethonium chloride kill control)
Method: (§1)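 DSRT, 72 h incubation, CellTox Green / CellTiter-Glo readout. Signal is normalised to DMSO and benzethonium chloride controls. Value is the normalised response at the highest dose.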

MFM-223 = experiment: as above
Method: as §1

CAL-120 = experiment: as above
Method: as §1

MDA-MB-231 = experiment: as above
Method: as §1

BT-474 = experiment: as above
Method: as §1

SK-BR-3 = experiment: as above
Method: as §1

HCC1937 = experiment: as above
Method: as §1

HCC1599 = experiment: as above
Method: as §1

HDQ-P1 [2] = experiment: as above
Method: as §1

MCF-10A = experiment: as above
Method: as §1

MDA-MB-453 [3] = experiment: as above
Method: as §1

BT-549 = experiment: as above
Method: as §1

Hs578T = experiment: as above
Method: as §1

CAL-85-1 [4] = experiment: as above
Method: as §1

CAL-51 [5] = experiment: as above
Method: as §1

MDA-MB-468 = experiment: as above
Method: as §1

DU-4475 [6] = experiment: normalised viability (% of control), CellTiter-Blue; higher = more viable cells (about 100 = DMSO control)
Method: (§2)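 DSRT, CellTiter-Blue viability, 72 h incubation. Signal is normalised to DMSO and benzethonium chloride controls. Value is the normalised response at dose 9.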

HDQ-P1 [7] = experiment: as above
Method: as §2

MDA-MB-453 [8] = experiment: as above
Method: as §2

CAL-148 = experiment: as above
Method: as §2

CAL-85-1 [9] = experiment: as above
Method: as §2

CAL-51 [10] = experiment: as above
Method: as §2

Row | SMILES | normalised response (DU-4475 [1]) | normalised response (MFM-223) | normalised response (CAL-120) | normalised response (MDA-MB-231) | normalised response (BT-474) | normalised response (SK-BR-3) | normalised response (HCC1937) | normalised response (HCC1599) | normalised response (HDQ-P1 [2]) | normalised response (MCF-10A) | normalised response (MDA-MB-453 [3]) | normalised response (BT-549) | normalised response (Hs578T) | normalised response (CAL-85-1 [4]) | normalised response (CAL-51 [5]) | normalised response (MDA-MB-468) | normalised viability (DU-4475 [6]) | normalised viability (HDQ-P1 [7]) | normalised viability (MDA-MB-453 [8]) | normalised viability (CAL-148) | normalised viability (CAL-85-1 [9]) | normalised viability (CAL-51 [10])
1 | Cc1ccc(C(=O)N(CCCN)[C@@H](c2oc3cc(Cl)ccc3c(=O)c2Cc2ccccc2)C(C)C)cc1 (100 nM) | 92.8% | 97.2% | 103% | 93% | 95.6% | 91.9% | 95.5% | 97.5% | 104% | 96.8% | 91.6% | 99.6% | 100% | 97.8% | 72.3% | 101% | – | – | – | – | – | –
2 | CO[C@H]1/C=C\C=C(/C)C(=O)NC2=CC(=O)C(NCCN(C)C)=C(C[C@@H](C)C[C@H](OC)[C@H](O)[C@@H](C)/C=C(\C)[C@@H]1OC(N)=O)C2=O [Alvespimycin] (1000 nM) | 0.05% | 39.2% | 47.8% | 19% | 28% | 36% | 21.6% | 58.8% | 22.4% | 15.4% | 28.1% | 39.5% | 35.4% | 18.1% | 16.2% | 34.2% | -0.26% | 29.6% | 3.62% | 4.23% | 18.6% | 6.39%
3 | CCC1(c2ccc(N)cc2)CCC(=O)NC1=O (stereo not given) [Aminoglutethimide] (10000 nM) | 101% | 97.8% | 109% | 103% | 105% | 97.2% | 94.5% | 108% | 102% | 101% | 101% | 98.1% | 95.1% | 106% | 145% | 97.3% | 97.9% | 120% | 81.6% | 112% | 106% | 85.2%
4 | Cn1c(CCCC(=O)O)nc2cc(N(CCCl)CCCl)ccc21 [Bendamustine] (10000 nM) | 101% | 106% | 108% | 109% | 99.6% | 105% | 108% | 96.6% | 113% | 114% | 120% | 101% | 103% | 107% | 132% | 116% | 78.6% | 113% | 121% | 92.4% | 92.9% | 99%
5 | C=C(c1ccc(C(=O)O)cc1)c1cc2c(cc1C)C(C)(C)CCC2(C)C [Bexarotene] (10000 nM) | 100% | 95.1% | 112% | 105% | 82.1% | 72.1% | 96.6% | 59.5% | 106% | 82.8% | 110% | 99.9% | 80.8% | 101% | 98.3% | 110% | 116% | 103% | 86.7% | 79.8% | 95.1% | 90.2%
6 | COc1cc2nccc(Oc3ccc(NC(=O)C4(C(=O)Nc5ccc(F)cc5)CC4)cc3)c2cc1OC [Cabozantinib] (1000 nM) | 102% | 64.6% | 95.2% | 79.2% | 83.8% | 107% | 95.4% | 102% | 94% | 94.6% | 95.4% | 104% | 89% | 107% | 111% | 87.2% | 108% | 88.5% | 37.1% | 78.7% | 45.1% | 86.5%
7 | N.N.[Cl][Pt][Cl] [Cisplatin] (1000 nM) | 94.7% | 99.9% | 105% | 96.3% | 94% | 92.3% | 106% | 101% | 95.3% | 94% | 106% | 101% | 100% | 104% | 87.5% | 105% | – | – | – | – | – | –
8 | C[C@@H](Oc1cc(-c2cnn(C3CCNCC3)c2)cnc1N)c1c(Cl)ccc(F)c1Cl [Crizotinib] (1000 nM) | 103% | 97.4% | 104% | 83.9% | 84.9% | 104% | 101% | 100% | 90.7% | 102% | 92.2% | 93.1% | 95.9% | 92.7% | 108% | 88.1% | – | – | – | – | – | –
9 | CN(C)/N=N/c1[nH]cnc1C(N)=O [Dacarbazine] (10000 nM) | 107% | 103% | 86% | 111% | 102% | 111% | 96.5% | 109% | 93.4% | 102% | 99.9% | 99.4% | 100% | 101% | 135% | 99.8% | 103% | 104% | 105% | 96.2% | 87.5% | 91.2%
